In patent publication US12319655B2, “RAF kinase inhibitors and methods of use thereof” (Deciphera Pharmaceuticals, LLC, priority 2021, dated 2025) one finds IC50 data, which are given here for ten compounds.

The test deals with H2405 cells. As to the kind of experiment: H2405 Cell Proliferation Assay (2). Type of test: cell-based. The following applies: Homo sapiens, NCI-H2405. As for the experimental part: H2405 Cell Proliferation Assay (2)
H2405 cells (catalog #CRL-5994) are obtained from the American Type Culture Collect (ATTC, Manassas, VA). Briefly, cells were grown in RPMI 1640 supplemented with 5% characterized fetal bovine serum (Invitrogen, Carlsbad, CA) and 1% Penicillin/Streptomycin/L-Glutamine at 37° C., 5% CO2, and 95% humidity. Cells are expanded until reaching 70-95% confluency at which point they are sub-cultured or harvested for assay use. A serial dilution of test compound is dispensed into a 384-well black clear bottom plate in triplicate. Seven hundred fifty cells are added per well in 50 μL complete growth medium in the 384-well plate. Plates are incubated for 67-72 h at 37° C., 5% CO2, and 95% humidity. At the end of the incubation, 10 μL of a 440 μM solution of resazurin (Sigma, St. Louis, MO) in PBS is added to each well of the plate and plates are incubated for an additional 5-6 h at 37° C., 5% CO2, and 95% humidity. Plates are read on a Synergy2 or equivalent reader (Biotek, Winooski VT) using an excitation of 540 nm and an emission of 600 nm. Data is analyzed using Prism software (GraphPad, San Diego, CA) to calculate IC50 values

In general, IC50 refers to the concentration that gives 50% inhibition. In the case of `CNC(=O)c1cc(-c2cc(-c3cc(F)cc(NC(=O)c4ccnc(C(C)(C)F)c4)c3F)ccn2)ccn1` [Example 475], the IC50 lay in the range of 1 to 10 µM.

For the compound `Cc1ccc(NC(=O)c2ccnc(C(C)(C)F)c2)cc1-c1ccnc(-c2ccnc(C(N)=O)c2)c1` [Example 476], the IC50 was not above 0.1 µM.

`CNC(=O)c1cc(-c2cc(-c3cc(NC(=O)c4cnnc(C(F)(F)F)c4)ccc3C)ccn2)ccn1` [Example 477]: the IC50 lay within 1 to 10 µM.

For `CNC(=O)c1cc(-c2cc(-c3cc(NC(=O)c4ccnc(C(C)(C)F)c4)cc(F)c3F)ccn2)ccn1` [Example 478], the 50% inhibitory concentration (IC50) was not above 0.1 µM.

As for `CNC(=O)c1cc(-c2cc(-c3cc(NC(=O)c4ccnc(C(C)(C)F)c4)ccc3F)ccn2)ccn1` [Example 479], the half-maximal inhibitory concentration (IC50) lay within 0.1 to 0.5 µM.

Turning to `CNC(=O)c1cc(-c2cc(-c3cc(NC(=O)c4ccnc(C(C)(C)F)c4)cc(F)c3C)ccn2)ccn1` [Example 480], the IC50 lay in the range of 0.1 to 0.5 µM.

Consider `CNC(=O)c1cc(-c2cc(-c3cc(NC(=O)c4ccnc(C(C)(C)F)c4)ccn3)ccn2)ccn1` [Example 481], for which the half-inhibitory concentration (IC50) lay within 1 to 10 µM.

For `CNC(=O)c1cc(-c2cc(-c3cc(NC(=O)c4ccnc(C(C)(C)F)c4)c(F)cc3F)ccn2)ccn1` [Example 482], the IC50 lay within 0.1 to 0.5 µM.

For the compound `Cc1cc(-c2cc(NC(=O)c3ccnc(C(C)(C)F)c3)ccc2C)cc(-c2ccnc(C#N)c2)n1` [Example 483], the IC50 is 1 to 10 µM.

As for `Cc1cc(-c2cc(NC(=O)c3ccnc(C(C)(C)F)c3)ccc2C)cc(-c2ccnc(C(N)=O)c2)n1` [Example 484], the half-maximal inhibitory concentration (IC50) fell in the range of 0.1 to 0.5 µM.
